The target in series [1] is T1, Protein cereblon/Poly [ADP-ribose] polymerase 1 (Homo sapiens, UniProt P09874+Q96SW2). In words: PROTAC activity at CRBN/PARP1 in human MDA-MB-231 cells assessed as induction of PARP1 degradation at 1 uM incubated for 24 hrs by western blot analysis. The class given is cell-based. In general terms: In western blotting, separated proteins are transferred to a membrane and probed.
Target sequence in this assay (P09874 2-1014 limits assumed): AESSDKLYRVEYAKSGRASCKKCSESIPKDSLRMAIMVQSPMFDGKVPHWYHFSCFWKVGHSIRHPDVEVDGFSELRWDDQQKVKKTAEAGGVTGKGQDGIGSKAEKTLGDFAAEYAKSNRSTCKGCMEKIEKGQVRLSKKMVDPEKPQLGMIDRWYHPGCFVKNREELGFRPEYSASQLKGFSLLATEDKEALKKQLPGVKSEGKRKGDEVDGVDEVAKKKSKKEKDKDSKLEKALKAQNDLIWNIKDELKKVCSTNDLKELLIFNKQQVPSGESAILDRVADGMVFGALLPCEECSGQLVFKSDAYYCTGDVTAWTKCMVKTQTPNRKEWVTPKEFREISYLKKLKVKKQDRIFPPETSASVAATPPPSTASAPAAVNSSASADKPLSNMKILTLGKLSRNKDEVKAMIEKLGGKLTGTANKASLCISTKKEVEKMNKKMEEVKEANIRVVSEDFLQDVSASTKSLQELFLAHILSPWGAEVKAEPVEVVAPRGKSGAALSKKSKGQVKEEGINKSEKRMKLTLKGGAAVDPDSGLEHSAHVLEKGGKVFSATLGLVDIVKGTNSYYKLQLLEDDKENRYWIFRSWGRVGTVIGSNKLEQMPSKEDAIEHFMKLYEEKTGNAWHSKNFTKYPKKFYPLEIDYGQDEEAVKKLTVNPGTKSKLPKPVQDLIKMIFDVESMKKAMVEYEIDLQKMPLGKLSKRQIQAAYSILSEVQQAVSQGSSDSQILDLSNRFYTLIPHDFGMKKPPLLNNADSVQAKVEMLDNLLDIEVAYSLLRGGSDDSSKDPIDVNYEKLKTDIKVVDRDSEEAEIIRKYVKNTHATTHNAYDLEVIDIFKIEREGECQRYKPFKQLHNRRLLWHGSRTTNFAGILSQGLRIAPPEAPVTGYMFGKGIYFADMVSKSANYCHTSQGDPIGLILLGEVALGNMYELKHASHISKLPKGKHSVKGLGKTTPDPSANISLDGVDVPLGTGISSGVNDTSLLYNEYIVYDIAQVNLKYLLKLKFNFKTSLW
Target sequence in this assay (Q96SW2 whole entry partner): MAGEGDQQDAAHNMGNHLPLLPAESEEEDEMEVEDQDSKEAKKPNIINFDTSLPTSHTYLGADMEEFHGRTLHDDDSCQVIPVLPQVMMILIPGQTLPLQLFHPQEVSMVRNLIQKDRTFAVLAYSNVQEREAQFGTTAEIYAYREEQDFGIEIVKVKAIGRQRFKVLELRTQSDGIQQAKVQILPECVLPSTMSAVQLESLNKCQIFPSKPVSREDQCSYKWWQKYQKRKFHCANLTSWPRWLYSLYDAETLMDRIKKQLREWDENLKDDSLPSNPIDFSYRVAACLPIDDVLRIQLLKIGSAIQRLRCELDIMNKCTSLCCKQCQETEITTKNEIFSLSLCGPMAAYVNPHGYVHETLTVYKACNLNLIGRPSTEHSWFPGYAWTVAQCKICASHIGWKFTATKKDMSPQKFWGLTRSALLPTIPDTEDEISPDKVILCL

Another series deals with MDA-MB-468. The experiment in a line: Antiproliferative activity against human MDA-MB-468 cells assessed as cell growth inhibition incubated for 5 days by MTT assay. It counts as functional, cell-based. The settings on record: MDA-MB-468, 120 h. For orientation: Tetrazolium assays rely on reduction of a dye to a coloured formazan, in cell work by metabolically active cells.

Another series has as its system MDA-MB-436. The experiment in a line: Antiproliferative activity against human MDA-MB-436 cells assessed as cell growth inhibition incubated for 5 days by MTT assay. The settings on record: MDA-MB-436, 120 h. It counts as functional, cell-based.
Series [2] relates to MDA-MB-231. In words: Antiproliferative activity against human MDA-MB-231 cells assessed as cell growth inhibition incubated for 5 days by MTT assay. It counts as functional, cell-based. The following applies: MDA-MB-231, 120 h.
In the next series the test system is CAPAN-1. The experiment in a line: Antiproliferative activity against human CAPAN-1 cells assessed as cell growth inhibition incubated for 5 days by MTT assay. The class given is functional, cell-based. The following applies: CAPAN-1, 120 h.
Series [3] concerns MDA-MB-231. In words: Induction of cell cycle arrest in human MDA-MB-231 cells assessed as accumulation at S phase at 2.5 uM incubated for 24 hrs by propidium iodide staining based flow cytometry analysis (reference value: 37.88 %). The class given is functional.
Series [4] has as its target T1, Protein cereblon/Poly [ADP-ribose] polymerase 1. In words: PROTAC activity at CRBN/PARP1 in human MDA-MB-231 cells assessed as induction of PARP1 degradation incubated for 24 hrs by western blot analysis. It counts as cell-based.
Target sequence in this assay (P09874 whole entry): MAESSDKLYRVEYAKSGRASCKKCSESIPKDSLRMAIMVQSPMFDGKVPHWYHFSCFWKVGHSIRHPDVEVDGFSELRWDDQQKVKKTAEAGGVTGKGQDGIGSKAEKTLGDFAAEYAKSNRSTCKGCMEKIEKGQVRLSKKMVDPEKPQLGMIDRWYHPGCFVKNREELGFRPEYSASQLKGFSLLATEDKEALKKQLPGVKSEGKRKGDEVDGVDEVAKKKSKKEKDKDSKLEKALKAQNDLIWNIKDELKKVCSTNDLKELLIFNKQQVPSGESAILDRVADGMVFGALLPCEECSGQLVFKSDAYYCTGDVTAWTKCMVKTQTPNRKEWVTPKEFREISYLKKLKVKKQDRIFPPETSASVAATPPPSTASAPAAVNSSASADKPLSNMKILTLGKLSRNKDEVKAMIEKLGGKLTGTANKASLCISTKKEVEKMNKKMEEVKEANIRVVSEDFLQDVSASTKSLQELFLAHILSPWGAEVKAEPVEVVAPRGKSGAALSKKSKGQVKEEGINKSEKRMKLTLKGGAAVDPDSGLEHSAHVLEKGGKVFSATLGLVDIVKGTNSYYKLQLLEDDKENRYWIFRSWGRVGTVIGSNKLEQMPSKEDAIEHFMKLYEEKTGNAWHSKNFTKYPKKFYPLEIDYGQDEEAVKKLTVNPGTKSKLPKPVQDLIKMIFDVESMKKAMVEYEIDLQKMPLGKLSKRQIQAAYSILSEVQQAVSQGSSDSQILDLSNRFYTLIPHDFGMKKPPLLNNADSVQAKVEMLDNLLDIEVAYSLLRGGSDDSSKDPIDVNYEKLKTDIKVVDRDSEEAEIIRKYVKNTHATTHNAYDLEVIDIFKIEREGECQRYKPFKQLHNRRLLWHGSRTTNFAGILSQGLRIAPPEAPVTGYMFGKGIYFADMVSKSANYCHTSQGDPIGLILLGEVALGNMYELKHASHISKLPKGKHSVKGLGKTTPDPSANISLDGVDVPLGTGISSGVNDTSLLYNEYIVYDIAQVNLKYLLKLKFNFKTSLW
Target sequence in this assay (Q96SW2 whole entry): as the sequence (Q96SW2 whole entry partner) above
Series [5] has as its system MDA-MB-231. The experiment in a line: Induction of cell cycle arrest in human MDA-MB-231 cells assessed as accumulation at S phase at 0.625 uM incubated for 24 hrs by propidium iodide staining based flow cytometry analysis (reference value: 37.88 %). The class given is functional.
Series [6] concerns MDA-MB-231. The experiment in a line: Induction of cell cycle arrest in human MDA-MB-231 cells assessed as accumulation at G0/G1 phase at 0.625 uM incubated for 24 hrs by propidium iodide staining based flow cytometry analysis (reference value: 32.62 %). It counts as functional. For orientation: In flow cytometry, cells or beads pass a laser one at a time.
The test system of a further series is L02. The experiment in a line: Antiproliferative activity against human L02 cells assessed as cell growth inhibition incubated for 5 days by MTT assay. The class given is toxicity, cell-based. The following applies: l02, 120 h, time 5 day.
Series [7] concerns MDA-MB-231. In words: Induction of cell cycle arrest in human MDA-MB-231 cells assessed as accumulation at G0/G1 phase at 2.5 uM incubated for 24 hrs by propidium iodide staining based flow cytometry analysis (reference value: 32.62 %). The class given is functional.
The test system of series [8] is MDA-MB-231. The experiment in a line: Induction of cell cycle arrest in human MDA-MB-231 cells assessed as accumulation at G2/M phase at 5 uM incubated for 24 hrs by propidium iodide staining based flow cytometry analysis (reference value: 27.14 %). The class given is functional.
Series [9] deals with T1, Protein cereblon/Poly [ADP-ribose] polymerase 1. The experiment in a line: PROTAC activity at CRBN/PARP1 in human MDA-MB-231 cells assessed as induction of PARP1 degradation at 1 uM incubated for 4 hrs by western blot analysis. It counts as cell-based.
Target sequence in this assay (P09874 2-1014 limits assumed): as the sequence (P09874 2-1014 limits assumed) above
Target sequence in this assay (Q96SW2 whole entry partner): as the sequence (Q96SW2 whole entry partner) above
Series [10] has as its system MDA-MB-231. The experiment in a line: Induction of cell cycle arrest in human MDA-MB-231 cells assessed as accumulation at G2/M phase at 0.625 uM incubated for 24 hrs by propidium iodide staining based flow cytometry analysis (reference value: 27.14 %). It counts as functional.
Series [11] has as its system MDA-MB-231. In words: Induction of cell cycle arrest in human MDA-MB-231 cells assessed as accumulation at G0/G1 phase at 0.312 uM incubated for 24 hrs by propidium iodide staining based flow cytometry analysis (reference value: 32.62 %). It counts as functional.
Series [12] concerns the target Poly [ADP-ribose] polymerase 1 (Homo sapiens, UniProt P09874). In words: Binding affinity to PARP1 (unknown origin).
In series [13] the test system is MDA-MB-231. In words: Induction of cell cycle arrest in human MDA-MB-231 cells assessed as accumulation at G2/M phase at 2.5 uM incubated for 24 hrs by propidium iodide staining based flow cytometry analysis (reference value: 27.14 %). It counts as functional.
Another series has as its system HeLa. In words: Antiproliferative activity against human HeLa cells assessed as cell growth inhibition incubated for 5 days by MTT assay. It counts as functional, cell-based. The settings on record: time 5.0 day.
In series [14] the test system is MDA-MB-231. The experiment in a line: Induction of cell cycle arrest in human MDA-MB-231 cells assessed as accumulation at G0/G1 phase at 5 uM incubated for 24 hrs by propidium iodide staining based flow cytometry analysis (reference value: 32.62 %). The class given is functional.
In a further series the test system is MV4-11. In words: Antiproliferative activity against human MV4-11 cells assessed as cell growth inhibition incubated for 5 days by MTT assay. The class given is functional, cell-based. The settings on record: time 5.0 day.
The test system of the next series is NCI-H2228. In words: Antiproliferative activity against human NCI-H2228 cells assessed as cell growth inhibition incubated for 5 days by MTT assay. It counts as functional, cell-based. The settings on record: time 5.0 day.
The test system of the next series is HepG2. The experiment in a line: Antiproliferative activity against human HepG2 cells assessed as cell growth inhibition incubated for 5 days by MTT assay. The class given is functional, cell-based. The settings on record: time 5.0 day.
Series [15] concerns MDA-MB-231. The experiment in a line: Induction of cell cycle arrest in human MDA-MB-231 cells assessed as accumulation at G2/M phase at 0.312 uM incubated for 24 hrs by propidium iodide staining based flow cytometry analysis (reference value: 27.14 %). The class given is functional.
In series [16] the target is T1, Protein cereblon/Poly [ADP-ribose] polymerase 1. The experiment in a line: PROTAC activity at CRBN/PARP1 in human L02 cells assessed as induction of PARP1 degradation incubated for 24 hrs by western blot analysis. It counts as cell-based.
Target sequence in this assay (P09874 whole entry): as the sequence (P09874 whole entry) above
Target sequence in this assay (Q96SW2 whole entry): as the sequence (Q96SW2 whole entry partner) above
Series [17] deals with MDA-MB-231. The experiment in a line: Induction of cell cycle arrest in human MDA-MB-231 cells assessed as accumulation at S phase at 1.25 uM incubated for 24 hrs by propidium iodide staining based flow cytometry analysis (reference value: 37.88 %). It counts as functional.
The test system of the next series is SW620/5-FU. In words: Antiproliferative activity against human SW620/5-FU cells assessed as cell growth inhibition incubated for 5 days by MTT assay. It counts as functional, cell-based. The following applies: time 5.0 day.
In another series the test system is NCI-H3122. The experiment in a line: Antiproliferative activity against human NCI-H3122 cells assessed as cell growth inhibition incubated for 5 days by MTT assay. The class given is functional, cell-based. The settings on record: time 5.0 day.
In series [18] the test system is MDA-MB-231. In words: Induction of cell morphological changes in human MDA-MB-231 at 1 uM incubated for 24 hrs by DAPI and Rhodamine staining based immunofluorescence assay. The class given is functional.
Series [19] has as its system MDA-MB-231. The experiment in a line: Induction of cell cycle arrest in human MDA-MB-231 cells assessed as accumulation at G2/M phase at 1.25 uM incubated for 24 hrs by propidium iodide staining based flow cytometry analysis (reference value: 27.14 %). It counts as functional.
For series [20], the system named is MDA-MB-231. The experiment in a line: Induction of cell cycle arrest in human MDA-MB-231 cells assessed as accumulation at S phase at 5 uM incubated for 24 hrs by propidium iodide staining based flow cytometry analysis (reference value: 37.88 %). It counts as functional.
In series [21] the test system is MDA-MB-231. In words: Induction of cell cycle arrest in human MDA-MB-231 cells assessed as accumulation at S phase at 0.312 uM incubated for 24 hrs by propidium iodide staining based flow cytometry analysis (reference value: 37.88 %). It counts as functional.
Series [22] deals with MDA-MB-231. The experiment in a line: Antiproliferative activity against human MDA-MB-231 cells assessed as colony growth inhibition at 0.625 to 10 uM incubated for 14 days by MTT assay. The class given is functional, cell-based. The settings on record: dose 0.625-10 µM, time 14.0 day, DDE = dose-dependent effect.
The test system of series [23] is MDA-MB-231. The experiment in a line: Induction of cell cycle arrest in human MDA-MB-231 cells assessed as accumulation at G0/G1 phase at 1.25 uM incubated for 24 hrs by propidium iodide staining based flow cytometry analysis (reference value: 32.62 %). The class given is functional.

The source made the active and inactive calls. The calls are words filed in the database; no cut-off is given here.

Chain of Poly [ADP-ribose] polymerase 1 (P09874 whole entry): as the sequence (P09874 whole entry) above

`O=C1CCC(N2C(=O)c3cccc(NC(=O)CNCCCCCCCCCC(=O)N4CCN(C(=O)c5cc(Cc6n[nH]c(=O)c7ccccc67)ccc5F)CC4)c3C2=O)C(=O)N1` (stereo unspecified): the result in series [1] was Active. For the same molecule, the IC50 – broadly, the point on the concentration scale where inhibition reaches its midpoint – with MDA-MB-468 was 4350 nM; in the series on MDA-MB-436, 130 nM; with MDA-MB-231 [2], 5370 nM; with CAPAN-1 it was 220 nM.

Take `O=C1CCC(N2C(=O)c3cccc(NC(=O)CNCCCCCCCCCCCC(=O)N4CCN(C(=O)c5cc(Cc6n[nH]c(=O)c7ccccc67)ccc5F)CC4)c3C2=O)C(=O)N1` (stereo unspecified): the IC50 in the series on MDA-MB-468 worked out at 3110 nM; in the series on MDA-MB-436 it was 34 nM; in the series on MDA-MB-231 [2], 4130 nM; in the series on CAPAN-1 it was 65 nM.

Take `O=C1CCC(N2C(=O)c3cccc(NC(=O)CNCCCCCCCCCCC(=O)N4CCN(C(=O)c5cc(Cc6n[nH]c(=O)c7ccccc67)ccc5F)CC4)c3C2=O)C(=O)N1` (stereo unspecified): the Activity with MDA-MB-231 [3] is listed as 30.55%; in the series on MDA-MB-231 [5] it was 32.14%; in the series with MDA-MB-231 [6] it was 36.68%; with L02, “Toxic”; with MDA-MB-231 [7], 32.48%; with MDA-MB-231 [8], 41.92%. Also, the Activity was determined as 90% in series [9]; 29.56% in the series on MDA-MB-231 [10]; 37.11% in the series on MDA-MB-231 [11]; 37.16% with MDA-MB-231 [13]; 25.81% in the series with MDA-MB-231 [14]; 28.41% in the series with MDA-MB-231 [15]. In addition, the Activity is 30.97% in the series on MDA-MB-231 [17]; 35.58% with MDA-MB-231 [19]; 30.47% in the series on MDA-MB-231 [20]; 33.02% in the series on MDA-MB-231 [21]; “Dde” with MDA-MB-231 [22]; 32.03% with MDA-MB-231 [23]. The outcome (in series [1]; with HeLa; in the series with MV4-11; in the series with NCI-H2228; with HepG2; with SW620/5-FU) was Active. Besides, the outcome with NCI-H3122 and in the series with MDA-MB-231 [18] was Active. Further, the IC50 in the series with MDA-MB-468 worked out at 2320 nM; in the series with MDA-MB-436 it was 31 nM; in series [12] it was 2.95 nM; with MDA-MB-231 [2], 3920 nM; in the series with CAPAN-1, 77 nM. For the same molecule, the DC50 (as a rule, the concentration giving 50% degradation) in series [4] came out at 53 nM; in series [16], 3200 nM.

Take `O=C1CCC(N2C(=O)c3cccc(NC(=O)CNCCCCCCCCCCCCC(=O)N4CCN(C(=O)c5cc(Cc6n[nH]c(=O)c7ccccc67)ccc5F)CC4)c3C2=O)C(=O)N1` (stereo unspecified): the IC50 in the series with MDA-MB-468 stood at 5030 nM; in the series on MDA-MB-436 it was 76 nM; in the series with MDA-MB-231 [2], 7250 nM; in the series with CAPAN-1, 240 nM.

In the case of `O=C1CCC(N2C(=O)c3cccc(NC(=O)CNCCCC(=O)N4CCN(C(=O)c5cc(Cc6n[nH]c(=O)c7ccccc67)ccc5F)CC4)c3C2=O)C(=O)N1` (stereo unspecified), the IC50 in the series with MDA-MB-468 was greater than 20000 nM; in the series with MDA-MB-436, 6800 nM; in the series with MDA-MB-231 [2] it was greater than 20000 nM; in the series with CAPAN-1, 8640 nM.

Consider `O=C(CCCCCCCCCCC(=O)N1CCN(C(=O)c2cc(Cc3n[nH]c(=O)c4ccccc34)ccc2F)CC1)NCCNc1cccc2c1C(=O)N(C1CCC(=O)NC1=O)C2=O` (stereo unspecified), for which, in [16], the half-maximal degradation concentration (DC50) is 2.89 nM.

Regarding `O=C1CCC(N2C(=O)c3cccc(NC(=O)CNCCCCCCCCC(=O)N4CCN(C(=O)c5cc(Cc6n[nH]c(=O)c7ccccc67)ccc5F)CC4)c3C2=O)C(=O)N1` (stereo unspecified), the outcome in series [1] was Active. Further, the IC50 in the series with MDA-MB-468 stood at 6080 nM; in the series on MDA-MB-436, 210 nM; with MDA-MB-231 [2], 7540 nM; in the series on CAPAN-1, 590 nM.

These data come from ChEMBL document CHEMBL5113469, “Synthesis and biological evaluation of a tumor-selective degrader of PARP1” (Bioorg Med Chem, 2022).
